Experimental data published in ChEMBL document CHEMBL3399969, “Multifunctional scutellarin-rivastigmine hybrids with cholinergic, antioxidant, biometal chelating and neuroprotective properties for the treatment of Alzheimer's disease” (Bioorg Med Chem, 2015).
Calls of active or inactive are those of the source. The rule behind the calls is not given here.

Experiments:
Acetylcholinesterase = target: T1, Acetylcholinesterase (Rattus norvegicus, UniProt P37136); assay: Inhibition of rat cortex AChE using acetylthiocholine iodide as substrate after 15 mins by Ellman method
T1 sequence (P37136 whole entry): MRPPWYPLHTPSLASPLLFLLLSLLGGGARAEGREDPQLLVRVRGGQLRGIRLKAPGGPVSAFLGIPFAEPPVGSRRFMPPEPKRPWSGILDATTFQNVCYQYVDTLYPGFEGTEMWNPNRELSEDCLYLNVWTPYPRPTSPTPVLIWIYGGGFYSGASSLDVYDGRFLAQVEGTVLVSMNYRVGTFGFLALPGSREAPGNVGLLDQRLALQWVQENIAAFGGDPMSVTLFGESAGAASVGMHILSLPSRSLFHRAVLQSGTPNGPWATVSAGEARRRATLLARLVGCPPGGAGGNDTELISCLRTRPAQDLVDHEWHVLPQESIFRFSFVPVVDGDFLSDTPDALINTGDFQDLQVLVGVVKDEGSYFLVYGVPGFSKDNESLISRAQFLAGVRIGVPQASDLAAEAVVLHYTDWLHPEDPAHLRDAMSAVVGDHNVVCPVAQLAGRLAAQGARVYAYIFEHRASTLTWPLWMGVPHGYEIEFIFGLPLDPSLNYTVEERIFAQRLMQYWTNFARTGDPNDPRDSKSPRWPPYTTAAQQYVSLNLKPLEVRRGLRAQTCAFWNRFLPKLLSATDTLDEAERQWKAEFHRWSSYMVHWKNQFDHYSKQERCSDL

[1] = Inhibition of rat serum BuChE using butyrylthiocholine iodide as substrate after 15 mins by Ellman method; type: cell-free
Rattus norvegicus = species on record: Rattus norvegicus; assay: Selectivity index, ratio of IC50 for rat serum BuChE to IC50 for rat cortex AChE; type: cell-free
[2] = Metal chelating activity of the compound assessed as Cu2+ complex formation after 30 mins by UV-Vis spectrometry; type: physicochemical; settings: 0.5 h
[3] = Metal chelating activity of the compound assessed as Zn2+ complex formation after 30 mins by UV-Vis spectrometry; type: physicochemical; settings: 0.5 h
[4] = Metal chelating activity of the compound assessed as Al3+ complex formation after 30 mins by UV-Vis spectrometry; type: physicochemical; settings: 0.5 h
[5] = Metal chelating activity of the compound assessed as Fe2+ complex formation after 30 mins by UV-Vis spectrometry; type: physicochemical; settings: 0.5 h
[6] = Antioxidant activity assessed as trolox equivalent of […]-induced radical scavenging activity by ORAC-FL method; type: physicochemical
PC-12 = assay: Neuroprotective effect against H2O2-induced rat PC12 cell injury assessed as cell viability at 10 uM incubated for 2 hrs prior to H2O2 challenge measured after 24 hrs by MTT assay (reference value: 57.6%); type: functional; settings: read-out: Activity
[7] = target: Acetylcholinesterase (Electrophorus electricus) (UniProt O42275); assay: Mixed-type inhibition of electric eel AChE using acetylthiocholine iodide as substrate at 0.5 to 1.5 uM after 15 mins by Lineweaver-Burk reciprocal plot analysis
Acetylcholinesterase (Electrophorus electricus), sequence (O42275 24-633 limits assumed): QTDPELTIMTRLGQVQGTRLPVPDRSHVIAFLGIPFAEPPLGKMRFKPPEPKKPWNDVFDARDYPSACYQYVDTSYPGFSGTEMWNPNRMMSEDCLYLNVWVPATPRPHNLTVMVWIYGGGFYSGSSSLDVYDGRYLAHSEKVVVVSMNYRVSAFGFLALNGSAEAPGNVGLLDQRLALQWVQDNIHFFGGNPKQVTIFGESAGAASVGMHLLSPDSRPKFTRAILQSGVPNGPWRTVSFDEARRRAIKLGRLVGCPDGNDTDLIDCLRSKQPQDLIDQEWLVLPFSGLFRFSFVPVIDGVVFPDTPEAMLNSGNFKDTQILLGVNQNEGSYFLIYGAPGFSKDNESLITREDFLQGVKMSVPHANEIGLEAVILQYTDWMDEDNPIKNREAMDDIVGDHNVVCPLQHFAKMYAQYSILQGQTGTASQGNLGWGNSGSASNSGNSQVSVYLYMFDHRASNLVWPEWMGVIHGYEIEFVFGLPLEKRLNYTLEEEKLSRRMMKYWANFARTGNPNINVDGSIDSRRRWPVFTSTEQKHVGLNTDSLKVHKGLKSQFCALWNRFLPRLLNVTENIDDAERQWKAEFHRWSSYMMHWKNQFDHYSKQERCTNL

Mus musculus [8] = assay: Toxicity in Kunming mouse assessed as change in behavior at 6 mg/kg; type: organism-based; design: dose 6 mg/kg; settings: in vivo
Mus musculus [9] = assay: Toxicity in Kunming mouse assessed as change in behavior at 2 to 8 mg/kg; type: organism-based; design: dose 2-8 mg/kg; settings: in vivo
Mus musculus [10] = species on record: Mus musculus; assay: Cognitive enhancing effect in Kunming mouse assessed as inhibition of scopolamine-induced decreased spontaneous alternation behavior after 30 mins by T-maze test; type: functional, organism-based
Mus musculus [11] = assay: Cognitive enhancing effect in Kunming mouse assessed as inhibition of scopolamine-induced decreased spontaneous alternation behavior at 8 mg/kg after 30 mins by T-maze test; type: functional; design: scale not given: the % may be the effect or the level left
Mus musculus [12] = species on record: Mus musculus; assay: Neuroprotective effect in Kunming mouse hippocampus assessed as reduction of scopolamine-induced vitality of AChE by Ellman method; type: functional, organism-based
Mus musculus [13] = assay: Neuroprotective effect in Kunming mouse hippocampus assessed as reduction of scopolamine-induced vitality of AChE at 8 mg/kg by Ellman method; type: functional
Mus musculus [14] = species on record: Mus musculus; assay: Neuroprotective effect in scopolamine-treated Kunming mouse hippocampus assessed as increase in vitality of ChAT by Ellman method; type: functional, organism-based
Mus musculus [15] = assay: Neuroprotective effect in scopolamine-treated Kunming mouse hippocampus assessed as increase in vitality of ChAT at 8 mg/kg by Ellman method; type: functional
Mus musculus [16] = assay: Cognitive enhancing effect in Kunming mouse assessed as inhibition of scopolamine-induced decreased spontaneous alternation behavior at 6 mg/kg after 30 mins by T-maze test; type: functional; design: scale not given: the % may be the effect or the level left
Mus musculus [17] = assay: Neuroprotective effect in Kunming mouse hippocampus assessed as reduction of scopolamine-induced vitality of AChE at 6 mg/kg by Ellman method; type: functional
Mus musculus [18] = assay: Neuroprotective effect in scopolamine-treated Kunming mouse hippocampus assessed as increase in vitality of ChAT at 6 mg/kg by Ellman method; type: functional

Compound `CCN(CC)C(=O)Oc1ccc(-c2cc(=O)c3c(OC)c(OC)c(OC)cc3o2)cc1` has an IC50 (Acetylcholinesterase) of 0.34 µM, an IC50 [1] of 8.2 µM and a Ratio IC50 (Rattus norvegicus) of 24.1. For the same compound, the Activity [2] was “Active”, the Activity [3] was “Active” and the Activity [4] was “Active”. For the same compound, the Activity [5] was “Active”, the Activity [6] was 0.36 and the viability at 10 µM (PC-12) was 70.3%.
With `CCN(CC)C(=O)Oc1ccc(-c2cc(=O)c3c(O)c(OC)c(OC)cc3o2)cc1` the IC50 (Acetylcholinesterase) was 0.57 µM, the IC50 [1] was 22.6 µM and the Ratio IC50 (Rattus norvegicus) was 39.7. The inhibition [7] was “Active”, the Activity [2] was “Not Active” and the Activity [3] was “Not Active”. For the same compound, the Activity [4] was “Not Active”, the Activity [5] was “Not Active” and the Activity [6] was 1.3. For the same compound, the viability at 10 µM (PC-12) was 78.5%, the Activity (Mus musculus [8]) was “Non-toxic” and the Activity (Mus musculus [9]) was “Non-toxic”. For the same compound, the Activity (Mus musculus [10]) was “Dose-dependent effect”, the Activity (Mus musculus [11]) was 68.7% and the Activity (Mus musculus [12]) was “Dose-dependent effect”. The Activity (Mus musculus [13]) was 0.11 U/mg, the Activity (Mus musculus [14]) was “Dose-dependent effect” and the Activity (Mus musculus [15]) was 45.2 U/mg.
Compound `CCN(C)C(=O)Oc1cccc([C@H](C)N(C)C)c1` [RIVASTIGMINE] has an IC50 [1] of 1.4 µM, an Activity (Mus musculus [16]) of 67.3% and an Activity (Mus musculus [17]) of 0.087 U/mg. It also gave an Activity (Mus musculus [18]) of 44.8 U/mg.
`COc1cc2oc(-c3ccc(OC(=O)N4CCN(C)CC4)cc3)cc(=O)c2c(OC)c1OC` showed an IC50 (Acetylcholinesterase) of 11.4 µM, an IC50 [1] of 63.8 µM and a Ratio IC50 (Rattus norvegicus) of 5.6. The Activity [6] was 0.29 and the viability at 10 µM (PC-12) was 82.4%.
`COc1cc2oc(-c3cccc(OC(=O)N4CCN(C)CC4)c3)cc(=O)c2c(OC)c1OC` gave an IC50 (Acetylcholinesterase) of 31.2 µM, an IC50 [1] greater than 100 µM and a Ratio IC50 (Rattus norvegicus) greater than 3.2. For the same compound, the Activity [6] was 0.36 and the viability at 10 µM (PC-12) was 82.1%.
Work on `COc1cc2oc(-c3ccc(OC(=O)N(C)C)cc3)cc(=O)c2c(OC)c1OC` yielded an IC50 (Acetylcholinesterase) of 8.24 µM, an IC50 [1] of 7.3 µM and a Ratio IC50 (Rattus norvegicus) of 0.9. For the same compound, the Activity [6] was 0.32 and the viability at 10 µM (PC-12) was 73.5%.
Compound `CCN(C)C(=O)Oc1ccc(-c2cc(=O)c3c(O)c(OC)c(OC)cc3o2)cc1` has an IC50 (Acetylcholinesterase) of 2.1 µM, an IC50 [1] of 38.1 µM and a Ratio IC50 (Rattus norvegicus) of 18.1. The Activity [6] was 1.1 and the viability at 10 µM (PC-12) was 78.3%.
In the case of `COc1cc2oc(-c3cccc(OC(=O)N4CCCCC4)c3)cc(=O)c2c(OC)c1OC`, the IC50 (Acetylcholinesterase) is reported as 45.7 µM, the IC50 [1] is reported as 26.8 µM and the Ratio IC50 (Rattus norvegicus) is reported as 0.6. It also gave an Activity [6] of 0.31 and a viability at 10 µM (PC-12) of 72.5%.
In the case of `COc1cc2oc(-c3cccc(OC(=O)N(C)C)c3)cc(=O)c2c(OC)c1OC`, the IC50 (Acetylcholinesterase) is reported as 37.3 µM, the IC50 [1] is reported as 28.3 µM and the Ratio IC50 (Rattus norvegicus) is reported as 0.8. It also gave an Activity [6] of 0.28 and a viability at 10 µM (PC-12) of 69.3%.
For `COc1cc2oc(-c3ccc(OC(=O)N4CCN(Cc5ccccc5)CC4)cc3)cc(=O)c2c(OC)c1OC`, the IC50 (Acetylcholinesterase) was 1.04 µM, the IC50 [1] was 37.2 µM and the Ratio IC50 (Rattus norvegicus) was 35.8. It also gave an Activity [6] of 0.32 and a viability at 10 µM (PC-12) of 81.9%.
Compound `COc1cc2oc(-c3ccc(OC(=O)N(C)C)cc3)cc(=O)c2c(O)c1OC` has an IC50 (Acetylcholinesterase) of 17.3 µM, an IC50 [1] of 61.5 µM and a Ratio IC50 (Rattus norvegicus) of 3.6. For the same compound, the Activity [6] was 1.2 and the viability at 10 µM (PC-12) was 76.7%.
For `COc1cc2oc(-c3ccc(OC(=O)N4CCCCC4)cc3)cc(=O)c2c(OC)c1OC`, the IC50 (Acetylcholinesterase) was 21.2 µM, the IC50 [1] was 15.3 µM and the Ratio IC50 (Rattus norvegicus) was 0.7. The Activity [6] was 0.31 and the viability at 10 µM (PC-12) was 65.2%.
`COc1cc2oc(-c3ccc(OC(=O)N4CCCCC4)cc3)cc(=O)c2c(O)c1OC` gave an IC50 (Acetylcholinesterase) of 17.8 µM, an IC50 [1] greater than 100 µM and a Ratio IC50 (Rattus norvegicus) greater than 5.6. It also gave an Activity [6] of 1.1 and a viability at 10 µM (PC-12) of 79.6%.
In the case of `CCN(C)C(=O)Oc1ccc(-c2cc(=O)c3c(OC)c(OC)c(OC)cc3o2)cc1`, the IC50 (Acetylcholinesterase) is reported as 1.54 µM, the IC50 [1] is reported as 6.2 µM and the Ratio IC50 (Rattus norvegicus) is reported as 4. It also gave an Activity [6] of 0.34 and a viability at 10 µM (PC-12) of 75.1%.
`COc1cc2oc(-c3ccc(OC(=O)N4CCN(Cc5ccccc5)CC4)cc3)cc(=O)c2c(O)c1OC` showed an IC50 (Acetylcholinesterase) of 9.25 µM, an IC50 [1] greater than 100 µM and a Ratio IC50 (Rattus norvegicus) greater than 10.8. For the same compound, the Activity [6] was 0.9 and the viability at 10 µM (PC-12) was 84.5%.
